In assay [1] the target is Cysteinyl leukotriene receptor (Cavia porcellus). The assay can be described thus: Compound is evaluated for its ability to inhibit [3H]LTD4 binding to Cysteinyl leukotriene D4 receptor in guinea pig lung membranes.
For assay [2], the system named is Cysteinyl leukotriene receptor (Cavia porcellus). Put plainly: In vitro ability to antagonize a leukotriene D4 induced contraction of guinea pig trachea.

Among the data in ChEMBL document CHEMBL1123338, “Synthesis and structure-activity relationship studies of a series of 5-aryl-4,6-dithianonanedioic acids and related compounds: a novel class of leukotriene antagonists” (J Med Chem, 1986) are Ki and -Log KB values, retold here.

As a reminder, the Ki is the dissociation constant of the complex between target and ligand, obtained from inhibition or displacement.

`CCCCCCCCCCCCc1cccc(C)c1C(SCCC(=O)O)SCCC(=O)O` returned an inhibition constant Ki in assay [1] of 3.672 µM. With `CCCCCCCCCCCCC(SCCC(=O)O)SCCC(=O)O`, the -Log KB in assay [2] amounted to 5.2. Turning to `CCCCCCCCCCCCc1ccccc1C1S[C@H](C(=O)O)[C@H](C(=O)O)S1` (stereo in doubt; 61), the inhibition constant (Ki) in assay [1] came out at 17.578 µM. As for `CCCCCCCCCOc1ccccc1C(SCCC(=O)O)SCCC(=O)O`, the -Log KB in assay [2] was determined as 5.8. In assay [1], this molecule displayed a Ki of 4.094 µM. With `CCCCCCCCCCCCCCc1ccccc1C(SCCC(=O)O)SCCC(=O)O`, the Ki in assay [1] came out at 1.246 µM. With `O=C(O)CCSC(SCCC(=O)O)c1ccccc1CCCCCCCCCCCC(F)(F)F`, in assay [2], the -Log KB was found to be 6.2. In addition, the Ki in assay [1] was determined as 0.147 µM. `CCCCCCCCCCC#CC(SCCCC(=O)O)SCCCC(=O)O` had a -Log KB in assay [2] of 5.6. In the case of `CCCCC/C=C/C/C=C/COc1cccc(C(SCCC(=O)O)SCCC(=O)O)c1`, the -Log KB in assay [2] amounted to 6.2. In assay [1], this molecule came in with a Ki of 0.187 µM. The matching figures for `O=C(O)CCSC(SCCC(=O)O)c1cc(C(F)(F)F)ccc1CCCCCCCCc1ccccc1`: 7 and 0.476 µM. With `CCCCCCCCCCCCCOc1cccc(C(SCCC(=O)O)SCCC(=O)O)c1`, the Ki in assay [1] was 0.53 µM. Molecule `CCCCCCCCCCC#CC(SCCC(=O)O)SCCC(=O)O` showed a -Log KB in assay [2] of 6.1. `CCCCc1ccccc1C(SCCC(=O)O)SCCC(=O)O` displayed an inhibitory constant (Ki) in assay [1] greater than 20 µM. Molecule `CCCCCCCCCCCOc1ccc([N+](=O)[O-])cc1C(SCCC(=O)O)SCCC(=O)O` gave a -Log KB in assay [2] of 6.1. In assay [1], this molecule displayed a Ki of 0.303 µM. `CCCCCCCCCCC[C@@H]1CCC(SCCC(=O)O)(SCCC(=O)O)c2ccccc21` showed an inhibitory constant (Ki) in assay [1] greater than 20 µM. Same read-out and setting: next, `CCCCCCCCCCC[C@@H]1CC(SCCC(=O)O)(SCCC(=O)O)c2ccccc21`: 2.092 µM. In the case of `CCCc1c(OCCCCCOc2ccccc2C(SCCC(=O)O)SCCC(=O)O)ccc(C(C)=O)c1O`, the -Log KB in assay [2] was 6.6. In assay [1], this molecule came in with a Ki of 3.149 µM. The matching figures for `CCCCCCCCCCCSc1ccccc1C(SCCC(=O)O)SCCC(=O)O`: 6 and 0.646 µM. The matching figures for `CCCCCCCCCC/C=C/c1ccccc1C(SCCC(=O)O)SCCC(=O)O`: 5.8 and 0.491 µM. Molecule `CCCCCCCCc1ccccc1C(SCCC(=O)O)SCCC(=O)O` displayed a -Log KB in assay [2] of 5.2. This molecule also yielded a Ki in assay [1] of 5.674 µM. `CCCCCCCCCCCCCOc1ccc(C(SCCC(=O)O)SCCC(=O)O)cc1` had an inhibition constant (Ki) in assay [1] greater than 20 µM. `C#CCCCCCCCCCCc1ccccc1C(SCCC(=O)O)SCCC(=O)O`: in assay [2], the -Log KB came to 6.8. Further, in assay [1], the inhibitory constant (Ki) was 0.141 µM. On the same counts, the results for `CCCCCCCCCCCOc1ccccc1C(C)(SCCC(=O)O)SCCC(=O)O` are 5.6 and greater than 20 µM. The molecule `CCCCCCCCCCCCc1ccccc1C(SCCCC(=O)O)SCCCC(=O)O` returned a Ki in assay [1] of 0.934 µM. In assay [2], `CCCCCCCCCCC#Cc1ccccc1C(SCCC(=O)O)SCCC(=O)O` came in with a -Log KB of 5.9. Also, the Ki in assay [1] was determined as 2.515 µM. For the molecule `CCCCCCCCCCCOc1ccccc1C(SCCC(=O)O)SCCC(=O)O`, the -Log KB in assay [2] worked out at 6.4. Besides, in assay [1], the Ki is 0.287 µM. Turning to `O=C(O)CCSC(SCCC(=O)O)c1ccccc1OCCCCCCc1ccccc1`, the -Log KB in assay [2] is 5.3. Further, in assay [1], the inhibition constant Ki came out at 11.526 µM. In assay [1], `CCOCCOCCOCCOc1ccccc1C(SCCC(=O)O)SCCC(=O)O` showed a Ki greater than 20 µM.

Take `CCCCCCCCCCc1ccccc1C(SCCC(=O)O)SCCC(=O)O`: in assay [2], the -Log KB amounted to 6.5. This molecule also had a Ki in assay [1] of 1.18 µM.

Turning to `CCCCCCCCC#CC(SCCC(=O)O)SCCC(=O)O`, in assay [2], the -Log KB is 5. Consider `O=C(O)CCSC(SCCC(=O)O)c1ccccc1OCCCC1CCCCC1`, for which, in assay [1], the Ki worked out at 1.009 µM.

As to `CCCCCCCCCOc1cccc(C(SCCC(=O)O)SCCC(=O)O)c1`, in assay [2], the -Log KB is 6. The inhibition constant Ki in assay [1] came out at 0.624 µM. In assay [1], `CCCCCCCCCCc1ccc(C(SCCC(=O)O)SCCC(=O)O)cc1` came in with an inhibitory constant (Ki) of 7.565 µM. Same read-out and setting: next, `CCCCCCCCCCCCc1ccccc1C1S[C@@H](C(=O)O)[C@H](C(=O)O)S1`: 0.401 µM. Regarding `O=C(O)CCSC(SCCC(=O)O)c1ccccc1CCCCCCCCC1CCCCC1`, the -Log KB in assay [2] turned out to be 5.5. In assay [1], this molecule returned a Ki of 1.958 µM. The matching figures for `CCCCCCCCCCCOc1ccc(OC)cc1C(SCCC(=O)O)SCCC(=O)O`: 5.9 and 0.579 µM. The matching figures for `CCCCCCCCCCCOc1ccc(Br)cc1C(SCCC(=O)O)SCCC(=O)O`: 6 and 0.624 µM.

`CCCCCCCCCCCCc1ccccc1C(CCCC(=O)O)CCCC(=O)O` yielded a Ki in assay [1] of 2.337 µM.

In assay [2], `CCCCCCCCCCCCC#CC(SCCC(=O)O)SCCC(=O)O` registered a -Log KB of 5.7. In assay [2], `CCCCCCCCCCCOc1ccc(O)cc1C(SCCC(=O)O)SCCC(=O)O` returned a -Log KB of 6. The inhibition constant Ki in assay [1] was 0.156 µM. Regarding `CCCCCCCCCCCCc1ccccc1C(SCCC(=O)O)[S+]([O-])CCC(=O)O` (configuration not stated), the -Log KB in assay [2] stood at 5.8. This molecule also had a Ki in assay [1] of 0.423 µM.

For `CCCCCCCCCCCCc1ccccc1C(SCC(=O)O)SCC(=O)O`, in assay [2], the -Log KB came to 5.9. For the same molecule, the Ki in assay [1] stood at 0.846 µM. Turning to `O=C(O)CCSC(SCCC(=O)O)c1ccccc1OCCCCCCCCCO`, the Ki in assay [1] is greater than 20 µM. Turning to `CCCCC/C=C/C/C=C/COc1ccccc1C(SCCC(=O)O)SCCC(=O)O`, the -Log KB in assay [2] amounted to 6. Further, the Ki in assay [1] was 1.002 µM. On the same counts, the results for `CCCCc1ccc(CCCCc2ccccc2C(SCCC(=O)O)SCCC(=O)O)cc1` are 5.6 and 4.228 µM. On the same counts, the results for `CCCCCCCCCCCCc1ccccc1C(SCCC(=O)O)SCCC(=O)O` are 6 and 0.445 µM. For the molecule `CCCCCCCCCCCOc1ccc(C(SCCC(=O)O)SCCC(=O)O)cc1`, the inhibition constant (Ki) in assay [1] is greater than 20 µM.

In the case of `CCCCCCCCCCCOc1cccc(C(SCCC(=O)O)SCCC(=O)O)c1`, in assay [2], the -Log KB stood at 6.1. In assay [1], this molecule came in with an inhibition constant Ki of 0.078 µM. In the case of `CCCCCCCCCCC#CC(SCC(=O)O)SCC(=O)O`, the -Log KB in assay [2] worked out at 5.3. In assay [1], `CCCCCCCCCC/C=C\c1ccccc1C(SCCC(=O)O)SCCC(=O)O` came in with a Ki of 1.38 µM. For `O=C(O)CCSC(SCCC(=O)O)c1cccc(CCCCCCCCc2ccccc2)c1`, the -Log KB in assay [2] worked out at 6. In assay [1], the Ki turned out to be 0.43 µM.
